# Data from US8637499B2, “Benzoxazepines as inhibitors of PI3K/mTOR and methods of their use and manufacture” (Exelixis, Inc., priority 2009, dated 2014).
# Molecular target: mTORC1 (mTOR/GbL/Raptor) (Homo sapiens, UniProt P42345)
# Experiment: mTOR/GbL/Raptor (mTORC1) ELISA Assay
# Assay type: biochemical
# Conditions: 0.2 nM mTORC1, 10 μM ATP, 50 nM NHis-tagged 4E-BP1; phosphorylation of 4E-BP1; read-out: IC50
# Experimental: mTOR/GbL/Raptor (mTORC1) ELISA Assay
# The measurement of mTORC1 enzyme activity was performed in an ELISA assay format following the phosphorylation of 4E-BP1 protein. All experiments were performed in the 384-well format. Generally, 0.5 μL DMSO containing varying concentrations of the test compound was mixed with 15 μL enzyme solution. Kinase reactions were initiated with the addition of 15 μL of substrates-containing solution. The assay conditions were as follows; 0.2 nM mTORC1, 10 μM ATP and 50 nM NHis-tagged 4E-BP1 in 20 mM Hepes, pH 7.2, 1 mM DTT, 50 mM NaCl, 10 mM MnCl2, 0.02 mg/mL BSA, 0.01% CHAPS, 50 mM β-glycerophosphate. Following an incubation of 120 minutes at ambient temperature, 20 μL of the reaction volume was transferred to a Ni-Chelate-coated 384-well plate. The binding step of the 4E-BP1 protein proceeded for 60 minutes, followed by washing 4 times each with 50 μL of Tris-buffered saline solution (TBS). Anti-phospho-4E-BP1 rabbit-IgG (20 μL, 1:5000) in 5% BSA-TBST (0.2% Tween-20 in TBS) was added and further incubated for 60 minutes. Incubation with a secondary HRP-tagged anti-IgG was similarly performed after washing off the primary antibody (4 washes of 50 μL). Following the final wash step with TBST, 20 μL of SuperSignal ELISA Femto (Pierce Biotechnology) was added and the luminescence measured using an EnVision plate reader.
row,IC50 [µM],SMILES
1,0.7 to 2.6,"CC1CCN(C(=O)N2CCOc3ccc(-c4cc(N)[nH]n4)cc3C2)CC1 [Compound 10, 3-{4-[(4-methylpiperidin-1-yl)carbonyl]-2,3,4,5-tetrahydro-1,4-benzoxazepin-7-yl}-1H-pyrazol-5-amine]"
2,0.25 to 0.7,"CCC1CC2(CCN(C(=O)N3CCOc4ccc(-c5ccc6nc(C)[nH]c6c5)cc4C3)CC2)CC(=O)N1 (stereo not shown) [Compound 155, 4-ethyl-9-{[7-(2-methyl-1H-benzimidazol-6-yl)-2,3-dihydro-1,4-benzoxazepin-4(5H)-yl]carbonyl}-3,9-diazaspiro[5.5]undecan-2-one]"
3,0.7 to 2.6,"Cc1nc2ccc(-c3ccc4c(c3)CN(C(=O)NC3[C@H]5C[C@@H]6C[C@@H](C[C@H]3C6)C5)CCO4)cc2[nH]1 (stereo partly drawn) [Compound 149, 7-(2-methyl-1H-benzimidazol-6-yl)-N-[(1r,3r,5R,7R)-tricyclo[3.3.1.1~3,7~]dec-2-yl]-2,3-dihydro-1,4-benzoxazepine-4(5H)-carboxamide]"
4,0.7 to 2.6,"Cc1nc2ccc(-c3ccc4c(c3)CN(C(=O)N3CCCCC3c3ccccc3C)CCO4)cc2[nH]1 (stereo not shown) [Compound 126, 7-(2-methyl-1H-benzimidazol-6-yl)-4-{[2-(2-methylphenyl)piperidin-1-yl]carbonyl}-2,3,4,5-tetrahydro-1,4-benzoxazepine]"
5,0.7 to 2.6,"Cc1nc2ccc(-c3ccc4c(c3)CN(C(=O)N3CCN(c5ccccc5Cl)CC3)CCO4)cc2[nH]1 [Compound 159, 4-{[4-(2-chlorophenyl)piperazin-1-yl]carbonyl}-7-(2-methyl-1H-benzimidazol-6-yl)-2,3,4,5-tetrahydro-1,4-benzoxazepine]"
6,0.25 to 0.7,"Cc1nc2ccc(-c3ccc4c(c3)CN(C(=O)N3CCN(Cc5c(F)cccc5Cl)CC3)CCO4)cc2[nH]1 [Compound 152, 4-({4-[(2-chloro-6-fluorophenyl)methyl]piperazin-1-yl}carbonyl)-7-(2-methyl-1H-benzimidazol-6-yl)-2,3,4,5-tetrahydro-1,4-benzoxazepine]"
7,0.25 to 0.7,"Cc1nc2ccc(-c3ccc4c(c3)CN(C(=O)N3CCC(Cc5ccccc5)CC3)CCO4)cc2[nH]1 [Compound 171, 7-(2-methyl-1H-benzimidazol-6-yl)-4-{[4-(phenylmethyl)piperidin-1-yl]carbonyl}-2,3,4,5-tetrahydro-1,4-benzoxazepine]"
8,0.7 to 2.6,"CC1CCN(C(=O)N2CCOc3ccc(-c4ccc(N)nn4)cc3C2)CC1 [Compound 1, 6-{4-[(4-methylpiperidin-1-yl)carbonyl]-2,3,4,5-tetrahydro-1,4-benzoxazepin-7-yl}pyridazin-3-amine]"
9,0.7 to 2.6,"Cc1nc2cc(-c3ccc4c(c3)CN(C(=O)N3CC[C@@](C)(O)C[C@@H]3c3ccccc3)CCO4)ccc2[nH]1 (racemic) [Compound 133, (±)-(2R,4R)-4-methyl-1-{[7-(2-methyl-1H-benzimidazol-5-yl)-2,3-dihydro-1,4-benzoxazepin-4(5H)-yl]carbonyl}-2-phenylpiperidin-4-ol]"
10,0.7 to 2.6,"Cc1nc2ccc(-c3ccc4c(c3)CN(C(=O)N3[C@@H]5CC[C@H]3C[C@@H](N)C5)CCO4)cc2[nH]1 [Compound 77, 8-{[7-(2-methyl-1H-benzimidazol-6-yl)-2,3-dihydro-1,4-benzoxazepin-4(5H)-yl]carbonyl}-8-azabicyclo[3.2.1]octan-3-(endo)-amine]"
11,0.25 to 0.7,"CCCCN(Cc1ccccc1)C(=O)N1CCOc2ccc(-c3ccc4nc(C)[nH]c4c3)cc2C1 [Compound 173, N-butyl-7-(2-methyl-1H-benzimidazol-6-yl)-N-(phenylmethyl)-2,3-dihydro-1,4-benzoxazepine-4(5H)-carboxamide]"
12,≤ 0.05,"Cc1nc2ccc(-c3ccc4c(c3)CN(C(=O)N3CCCC[C@H]3c3ccccc3)CCO4)cc2[nH]1 [Compound 65, 7-(2-methyl-1H-benzimidazol-6-yl)-4-{[(2S)-2-phenylpiperidin-1-yl]carbonyl}-2,3,4,5-tetrahydro-1,4-benzoxazepine]"
13,0.7 to 2.6,"CC1CCN(C(=O)N2CCOc3ccc(-c4cnc(N)cn4)cc3C2)CC1 [Compound 4, 5-{4-[(4-methylpiperidin-1-yl)carbonyl]-2,3,4,5-tetrahydro-1,4-benzoxazepin-7-yl}pyrazin-2-amine]"
14,0.25 to 0.7,"Cc1nc2ccc(-c3ccc4c(c3)CN(C(=O)N3CCN(C)C(=O)C3)CCO4)cc2[nH]1 [Compound 146, 1-methyl-4-{[7-(2-methyl-1H-benzimidazol-6-yl)-2,3-dihydro-1,4-benzoxazepin-4(5H)-yl]carbonyl}piperazin-2-one]"
15,0.7 to 2.6,"Cc1nc2ccc(-c3ccc4c(c3)CN(C(=O)N3CCCCC3c3ccc(F)cc3C)CCO4)cc2[nH]1 (stereo not shown) [Compound 117, 4-{[2-(4-fluoro-2-methylphenyl)piperidin-1-yl]carbonyl}-7-(2-methyl-1H-benzimidazol-6-yl)-2,3,4,5-tetrahydro-1,4-benzoxazepine]"
16,0.25 to 0.7,"Cc1nc2ccc(-c3ccc4c(c3)CN(C(=O)N3CCC(O)(c5ccc(C(F)(F)F)cc5)CC3)CCO4)cc2[nH]1 [Compound 141, 1-{[7-(2-methyl-1H-benzimidazol-6-yl)-2,3-dihydro-1,4-benzoxazepin-4(5H)-yl]carbonyl}-4-[4-(trifluoromethyl)phenyl]piperidin-4-ol]"
17,0.25 to 0.7,"Cc1nc2ccc(-c3ccc4c(c3)CN(C(=O)N3CCCCC3Cc3ccccc3)CCO4)cc2[nH]1 (stereo not shown) [Compound 104, 7-(2-methyl-1H-benzimidazol-6-yl)-4-{[2-(phenylmethyl)piperidin-1-yl]carbonyl}-2,3,4,5-tetrahydro-1,4-benzoxazepine]"
18,0.7 to 2.6,"Cc1nc2ccc(-c3ccc4c(c3)CN(C(=O)N3CCN(c5ccccc5F)CC3)CCO4)cc2[nH]1 [Compound 165, 4-{[4-(2-fluorophenyl)piperazin-1-yl]carbonyl}-7-(2-methyl-1H-benzimidazol-6-yl)-2,3,4,5-tetrahydro-1,4-benzoxazepine]"
19,0.25 to 0.7,"Nc1cnc(-c2ccc3c(c2)CN(C(=O)N2CCC(C(F)(F)F)CC2)CCO3)cn1 [Compound 6, 5-(4-{[4-(trifluoromethyl)piperidin-1-yl]carbonyl}-2,3,4,5-tetrahydro-1,4-benzoxazepin-7-yl)pyrazin-2-amine]"
20,0.7 to 2.6,"COc1cccc(N2CCN(C(=O)N3CCOc4ccc(-c5ccc6nc(C)[nH]c6c5)cc4C3)CC2)c1 [Compound 160, 7-(2-methyl-1H-benzimidazol-6-yl)-4-({4-[3-(methyloxy)phenyl]piperazin-1-yl}carbonyl)-2,3,4,5-tetrahydro-1,4-benzoxazepine]"

# Molecular target: PI3Kα (Homo sapiens, UniProt P42336)
# Sequence (P42336 whole entry): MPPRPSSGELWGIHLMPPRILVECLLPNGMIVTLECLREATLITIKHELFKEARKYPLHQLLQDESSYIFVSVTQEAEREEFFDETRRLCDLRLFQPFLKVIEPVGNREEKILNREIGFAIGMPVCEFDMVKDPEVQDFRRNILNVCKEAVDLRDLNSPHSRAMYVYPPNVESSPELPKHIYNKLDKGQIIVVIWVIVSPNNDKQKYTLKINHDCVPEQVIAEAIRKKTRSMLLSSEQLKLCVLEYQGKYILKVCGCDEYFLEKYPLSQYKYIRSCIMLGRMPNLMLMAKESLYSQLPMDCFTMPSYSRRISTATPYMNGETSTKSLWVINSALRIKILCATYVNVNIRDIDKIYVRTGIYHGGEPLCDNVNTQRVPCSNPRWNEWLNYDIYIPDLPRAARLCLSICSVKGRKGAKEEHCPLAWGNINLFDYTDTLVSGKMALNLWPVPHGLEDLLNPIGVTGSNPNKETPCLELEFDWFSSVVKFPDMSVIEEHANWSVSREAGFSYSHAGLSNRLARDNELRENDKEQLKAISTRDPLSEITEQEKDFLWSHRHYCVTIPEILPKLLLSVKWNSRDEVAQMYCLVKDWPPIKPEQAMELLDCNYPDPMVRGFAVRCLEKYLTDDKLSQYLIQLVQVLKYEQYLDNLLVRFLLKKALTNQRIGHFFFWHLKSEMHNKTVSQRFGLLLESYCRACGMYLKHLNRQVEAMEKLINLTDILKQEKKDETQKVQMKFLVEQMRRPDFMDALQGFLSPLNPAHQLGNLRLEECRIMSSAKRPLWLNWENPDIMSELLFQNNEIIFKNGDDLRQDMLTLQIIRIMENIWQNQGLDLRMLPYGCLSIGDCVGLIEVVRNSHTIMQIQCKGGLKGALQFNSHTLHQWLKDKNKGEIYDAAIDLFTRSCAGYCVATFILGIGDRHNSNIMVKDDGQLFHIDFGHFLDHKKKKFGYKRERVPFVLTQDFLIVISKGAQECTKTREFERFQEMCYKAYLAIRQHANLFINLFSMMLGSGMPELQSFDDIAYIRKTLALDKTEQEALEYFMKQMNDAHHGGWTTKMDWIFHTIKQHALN
# Sequence (P27986 whole entry partner): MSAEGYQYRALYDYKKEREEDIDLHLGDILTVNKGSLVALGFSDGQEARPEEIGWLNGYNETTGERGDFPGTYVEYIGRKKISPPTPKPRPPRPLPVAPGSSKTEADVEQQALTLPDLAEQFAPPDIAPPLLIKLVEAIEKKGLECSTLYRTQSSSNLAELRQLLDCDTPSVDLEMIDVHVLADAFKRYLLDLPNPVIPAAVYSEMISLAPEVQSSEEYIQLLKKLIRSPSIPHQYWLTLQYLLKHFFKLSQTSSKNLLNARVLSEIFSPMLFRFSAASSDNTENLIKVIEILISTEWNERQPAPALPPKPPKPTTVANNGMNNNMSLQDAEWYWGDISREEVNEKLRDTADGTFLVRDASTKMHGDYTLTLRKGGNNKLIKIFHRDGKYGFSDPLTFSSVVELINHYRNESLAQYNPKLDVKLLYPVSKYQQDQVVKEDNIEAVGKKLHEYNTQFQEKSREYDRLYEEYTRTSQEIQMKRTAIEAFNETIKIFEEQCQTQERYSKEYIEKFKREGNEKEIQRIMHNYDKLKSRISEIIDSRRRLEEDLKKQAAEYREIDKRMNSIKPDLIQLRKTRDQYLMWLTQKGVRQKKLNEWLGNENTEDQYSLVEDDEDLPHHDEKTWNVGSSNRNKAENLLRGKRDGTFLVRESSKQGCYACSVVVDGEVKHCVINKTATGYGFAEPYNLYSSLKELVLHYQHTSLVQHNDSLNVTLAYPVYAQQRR
# Experiment: PI3K Biochemical Assays (ATP consumption, luciferase-luciferin chemiluminescence)
# Conditions: PI3Kα 1.5 nM, ATP 1 μM, PIP2 10 μM; percent of ATP consumed
# Experimental: PI3Kα activity is measured as the percent of ATP consumed following the kinase reaction using luciferase-luciferin-coupled chemiluminescence. Reactions were conducted in 384-well white, medium binding microtiter plates (Greiner). Kinase reactions were initiated by combining test compounds, ATP, substrate (PIP2), and kinase in a 20 μL volume in a buffer solution. The standard PI3Kalpha assay buffer is composed 50 mM Tris, pH 7.5, 1 mM EGTA, 10 mM MgCl2, 1 mM DTT and 0.03% CHAPS. The standard assay concentrations for enzyme, ATP, and substrate are 1.5 nM, 1 μM, and 10 μM, respectively. The reaction mixture was incubated at ambient temperature for approximately 2 h. Following the kinase reaction, a 10 μL aliquot of luciferase-luciferin mix (Promega Kinase-Glo) was added and the chemiluminescence signal measured using a Victor2 plate reader (Perkin Elmer). Total ATP consumption was limited to 40-60% and IC50 values of control compounds correlate well with literature references. Substituting PI3Kα with PI3KIβ, […], or […], the inhibitory activity of the compounds for the other isoforms of I3K were measured.
row,IC50 [µM],SMILES
1,0.2 to 0.5,"Cc1nc2ccc(-c3ccc4c(c3)CN(C(=O)N3CCN(c5ccc([N+](=O)[O-])cc5)CC3)CCO4)cc2[nH]1 [Compound 168, 7-(2-methyl-1H-benzimidazol-6-yl)-4-{[4-(4-nitrophenyl)piperazin-1-yl]carbonyl}-2,3,4,5-tetrahydro-1,4-benzoxazepine]"
2,1 to 3,"CCOC(=O)CN(Cc1ccccc1)C(=O)N1CCOc2ccc(-c3ccc4nc(C)[nH]c4c3)cc2C1 [Compound 151, ethyl N-{[7-(2-methyl-1H-benzimidazol-6-yl)-2,3-dihydro-1,4-benzoxazepin-4(5H)-yl]carbonyl}-N-(phenylmethyl)glycinate]"
3,1 to 3,"Cc1nc2ccc(-c3ccc4c(c3)CN(C(=O)N3CC[S+]([O-])CC3)CCO4)cc2[nH]1 [Compound 101, 7-(2-methyl-1H-benzimidazol-6-yl)-4-[(1-oxidothiomorpholin-4-yl)carbonyl]-2,3,4,5-tetrahydro-1,4-benzoxazepine]"
4,1 to 3,"Cc1nc2ccc(-c3ccc4c(c3)CN(C(=O)N3CCN(C(=O)c5ccco5)CC3)CCO4)cc2[nH]1 [Compound 158, 4-{[4-(furan-2-ylcarbonyl)piperazin-1-yl]carbonyl}-7-(2-methyl-1H-benzimidazol-6-yl)-2,3,4,5-tetrahydro-1,4-benzoxazepine]"
5,1 to 3,"Cc1nc2ccc(-c3ccc4c(c3)CN(C(=O)N3CC[C@H](O)C3)CCO4)cc2[nH]1 [Compound 82, (3S)-1-{[7-(2-methyl-1H-benzimidazol-6-yl)-2,3-dihydro-1,4-benzoxazepin-4(5H)-yl]carbonyl}pyrrolidin-3-ol]"
